Measurements as given in publication PMC5380659, “Unique charge-dependent constraint on collagen recognition by integrin α10β1” (Matrix Biology, 2017).
Substitutions are numbered along the chain they refer to. Entries after “also recorded” stand apart in the source; their conditions may differ.

Experiments:
wild type α10 I domain = target: T1, wild type α10 I domain (Homo sapiens, UniProt O75578); assay: Concentration-dependent SPBA (KD) of wild-type α10 I domain; type: binding; settings: SPBA concentration dependence; for Saturation / quality of binding, wild type α10 I domain: up to 100 μg/ml; for KD, wild type α10 I domain: I domain up to 100 μg/ml, Fig. 9C and D
T1 construct: Recombinant human α10 I domain-encoding plasmid (pGEX-2T-α10 I domain) was cloned using standard procedures; made in house; host or cells: bacteria (pGEX-2T plasmid; the Origami strain is stated only for α2 I domains)
T1 sequence (O75578 167-350 limits assumed): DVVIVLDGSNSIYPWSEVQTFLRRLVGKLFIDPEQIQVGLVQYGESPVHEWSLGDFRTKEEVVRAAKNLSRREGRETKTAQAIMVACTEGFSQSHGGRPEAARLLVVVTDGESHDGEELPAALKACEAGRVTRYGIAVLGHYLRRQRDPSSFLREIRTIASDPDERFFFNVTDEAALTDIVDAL
Procedure: (§1) 96-well plates were prepared as for Fig. 1. A: binding to Toolkit II, B: binding to Toolkit III.
(§2) I domain adhesion was determined colorimetrically, as described, here termed solid phase binding assay (SPBA). Peptides were coated at 10 μg/ml for 1 h at 22 °C on Immulon-2 HB 96-well plates (Thermo Life Sciences, Basingstoke, UK), and blocked for 1 h with 200 μl of TBS containing 50 mg/ml bovine serum albumin. […] Wells were washed five times with 200 μl of adhesion buffer containing MgCl2 or EDTA, before adding 100 μl of adhesion buffer containing the anti-GST-HRP conjugate at 1:10,000 dilution for 1 h at room temperature. After washing, colour was developed using an ImmunoPure TMB Substrate Kit (Pierce) according to the manufacturer's instructions.

C2C12-α10β1 cells = assay: LDH-based SPBA of C2C12-α10β1 cell adhesion; set-up: species or system mouse; settings: short THPs, 2 mM Mg^2 +, 1 h, Fig. 4B
Procedure: The mouse myoblast cell line, C2C12-α10β1 clone, expresses α10β1 as its sole collagen-binding integrin [16]. To investigate the binding of α10β1 to collagen in a cellular and whole integrin context, therefore, the adhesion of C2C12-α10β1 cells to Toolkits II and III was performed using two different approaches. First, SPBA was used, with lactate dehydrogenase to report the presence of adherent cells, after lysis, as described in Experimental. […] C2C12-α10B1 cells generally bound more prominently to those weaker peptides that supported just-observable binding of free I-domain. This may reflect avidity of the receptor-populated cell surface for the peptide-coated wells, or perhaps up-regulation of integrin affinity following receptor engagement. It is also possible that some cell binding reflects specific indirect interactions. For example, fibronectin, available either by intrinsic expression or from the serum supplement, binds well to II-44, and can also bind integrin αVβ3 [21].
Fig. 2 Binding of α10β1-transfected C2C12 cells to Collagen Toolkits. 96-well plates were coated with peptides as for Fig. 1, then C2C12-α10β1 cells (5 × 10^4 per well) were added and incubated for 1 h in the presence of either 2 mM MgCl2 or 2 mM EDTA as above. A: binding to Toolkit II. B: binding to Toolkit III.
The mouse myoblast cell line, C2C12, (control and transfectants, C2C12-α1β1, C2C12-α2β1, C2C12-α10β1 or C2C12-α11β1) was maintained in RPMI medium containing 10% fetal bovine serum, 2 mM glutamine, 100 IU/ml penicillin, 100 μg/ml streptomycin, and 2.5 μg/ml amphotericin. Cells were harvested by centrifugation, washed, and suspended at 0.5 × 10^6/ml in Tris-buffered saline supplemented with 5.5 mM glucose and either 2 mM EDTA or 2 mM MgCl2. SPBA was performed as follows: 100 μl of the cell suspension was added to peptide-coated wells [42] at 20 °C for 60 min. Cell adhesion was determined colorimetrically after lysis, using a lactate dehydrogenase (LDH)-based cell detection kit (Roche Diagnostics) according to the supplier's instructions.

R215Q α10 I domain = target: T2, R215Q α10 I domain (Homo sapiens, UniProt O75578, R237Q); assay: Concentration-dependent SPBA (KD) of α10-R215Q I domain; type: binding; settings: SPBA concentration dependence; for Saturation / quality of binding, R215Q α10 I domain: up to 100 μg/ml; for KD, R215Q α10 I domain: I domain up to 100 μg/ml, Fig. 9C and D
T2 construct: made in house; host or cells: bacteria
T2 sequence (O75578 167-350 R237Q): T1 sequence (O75578 167-350 limits assumed) with R71Q
Procedure: as §1, §2

α2β1 = tested on: α2β1; set-up: method as in 4 sources, ref [8], [10] = [8]; PMID 16326707; doi:10.1074/jbc.M509818200; 8 Raynal N. Hamaia S.W. Siljander P.R. Maddox B. Peachey A.R. Fernandez R. Foley L.J. Slatter D.A. Jarvis G.E. Farndale R.W. Use of synthetic peptides to locate novel integrin alpha2beta1-binding moti || [10]; PMID 16043429; doi:10.1074/jbc.M502431200; 10 Kim J.K. Xu Y. Xu X. Keene D.R. Gurusiddappa S. Liang X. Wary K.K. Hook M. A novel binding site in collagen type III for the integrins, alpha 1beta 1 and alpha 2beta 1 J. Biol. Chem. 280 2005 32512 ||| ref not given ||| ref [4] = [4]; PMID 19693543; doi:10.1007/s00441-009-0834-6; 4 Barczyk M. Carracedo S. Gullberg D. Integrins Cell Tissue Res. 339 1 2010 269 280 19693543 10.1007/s00441-009-0834-6 PMC2784866 ||| ref [12] = [12]; PMID 22654115; doi:10.1074/jbc.M112.353144; 12 Hamaia S.W. Pugh N. Raynal N. Nemoz B. Stone R. Gullberg D. Bihan D. Farndale R.W. Mapping of potent and specific binding motifs, GLOGEN and GVOGEA, for integrin alpha1beta1 using collagen toolkits; settings: cited from earlier work; for Binding to integrin α2β1, previously described: ref not given

| Substance | Saturation / quality of binding, wild type α10 I domain (wild type α10 I domain) | Adhesion of C2C12-α10β1 cells to short triple-helical peptides (C2C12-α10β1 cells) | Saturation / quality of binding, R215Q α10 I domain (R215Q α10 I domain) | Binding to integrin α2β1, previously described (α2β1) | KD, wild type α10 I domain (wild type α10 I domain) [µg/mL] | KD, R215Q α10 I domain (R215Q α10 I domain) | Binding to α2β1 (α2β1; ref [8], [10]) |
| --- | --- | --- | --- | --- | --- | --- | --- |
| GFOGER [THP containing GFOGER served as positive control, reference compound] | did not saturate at up to 100 μg/ml; also recorded: good ligand | less well | did not saturate at up to 100 μg/ml; also recorded: good ligand | good binding motifs | – | – | – |
| GLOGEN [short THP containing GLOGEN] | saturation binding | bound strongly | enhanced binding of R215Q to GROGER but not GLOGEN; also recorded: saturation binding | good binding motifs | ~10 | ~10 µg/mL | – |
| GROGER [short triple-helical peptide containing GROGER] | bound poorly | absence of binding | enhanced binding; also recorded: bound quite well | good binding motifs | > 100 | about 50 μg/ml | relatively good α2β1-binding motif |
